# Source: the METLIN SMRT retention time set (Domingo-Almenara et al. 2019)
# Assay: gradient 5% acetonitrile 3 min, to 50% in 2 min, to 85% in 15 min, held 3 min, 100 µL/min
# Details: column: Zorbax Extend-C18 2.1 x 50 mm; eluents: water / acetonitrile, 0.1% formic acid
# Outline: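 Pure standards were analyzed in mixtures of ~100 molecules using HPLC coupled to a quadrupole time-of-flight mass spectrometer, in both positive and negative ionization mode. Separation used a Zorbax Extend-C18 column (2.1 × 50 mm, 1.8 μm) at 100 μL/min, with water and acetonitrile each containing 0.1% formic acid. Dead and dwell volumes were 40 μL and 900 μL, and data were collected over 3 months. Retention time was read from computationally picked adduct peaks, each inspected manually.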
row,RP-LC retention time [s],SMILES
1,838,COc1ccccc1N1CCN(CC(O)COc2cccc3ccccc23)CC1 (stereo not given)
2,833,Cn1ncc2c(N3CCSCC3)nc(C(=O)NCCc3cccs3)nc21
3,718,COc1ccc(CNS(=O)(=O)c2cc(-c3[nH]ncc3C(=O)N3CCCC3)oc2C)cc1
4,1010,CCc1cc(C(=O)NC2CC2)nc2cc(-c3ccsc3)nn12
5,586,Cc1cnc(C(=O)N2CCC(N3CC(OCC4CC4)C34CCOCC4)CC2)cn1 (stereo not given)
6,714,CC(=O)Nc1nc2ccc(CC(=O)Nc3ccc(F)cc3)cc2s1
7,616,CCNc1cc(C)nc(N2CCN(C(=O)c3ccccc3)CC2)n1
8,833,COc1ccc(C(C)NC(=O)c2cn3cc(Cl)ccc3n2)cc1 (stereo not given)
9,598,CN1C(=O)NC(c2ccccc2C(F)(F)F)C2=C1CN(CCC(=O)N1CCCC1)C2=O (stereo not given)
10,703,O=C(COc1ccc(Cl)cc1)NCc1nnc(SCC(=O)Nc2nccs2)o1
11,756,Cn1cc(-c2cc3n(n2)CCC(=O)N3CC(=O)NCc2ccco2)c2ccccc21
12,678,COCCn1cnc2c(-c3ccccc3)cn(CC(=O)NCC3CCCO3)c2c1=O (stereo not given)
13,951,Clc1ccc(OCc2nc3c4ccccc4ncn3n2)cc1
14,866,O=C(CSc1nnc2c(=O)n(-c3ccc(Br)cc3)ccn12)c1ccccc1
15,732,CC(=O)Nc1ccc(C2(C(=O)NCc3ccccc3F)CCC2)cc1
16,625,CCOC(=O)C1=C(CN2CCN(c3ccccn3)CC2)NC(=O)NC1c1ccc(F)cc1 (stereo not given)
17,813,Fc1cccc(-c2nc(-c3ccc4nncn4c3)no2)c1
18,1050,Cc1ccc(-c2nnc(Cc3nc(-c4ccc(F)cc4)no3)o2)cc1
19,984,CCOC(=O)c1c(S(=O)(=O)N2CCC(C(=O)Nc3ccc(C)c(F)c3)CC2)c(C)n(CC)c1C
20,883,O=C(NCCc1csc(-c2ccccc2)n1)c1ccccc1C(F)(F)F
21,592,Cc1cc(NCC(O)c2ccc([N+](=O)[O-])cc2)nc(-n2nc(C)cc2C)n1 (stereo not given)
22,1140,CC1CCN(C(=O)C2CCN(c3nc4ccc(-c5ccccc5)nc4s3)CC2)CC1

row,RP-LC retention time [s],SMILES
1,752,O=C(Cc1ccccc1Br)NC1CCN(c2cc(-c3ccc(F)cc3)[nH]n2)C1 (stereo not given)
2,695,O=C(N[C@H]1C[C@@H]2C[C@H]1N(C(=O)Cc1c(F)cccc1Cl)C2)c1cccnc1
3,808,O=C(Cn1cnc2nc3c(cc2c1=O)CCCC3)Nc1cccc2c1CCCC2
4,870,Cc1cccnc1Nc1nc(-c2ccc(F)cc2)cs1
5,745,Cn1nc(C(=O)N2CCCC(C(=O)Nc3ccccc3)C2)c2c1CCN(C(=O)C(C)(C)C)C2 (stereo not given)
6,670,COc1cc(CNCCc2c[nH]c3ccccc23)ccc1OCc1ccc2c(c1)n(C)c(=O)n2C
7,928,COC[C@@H]1OCCN(S(=O)(=O)c2cccc(F)c2)[C@H]1c1ccccc1
8,893,O=C(NCC(=O)N1CCOC(c2ccccc2)C1)c1ccc(-c2ccccc2)cc1 (stereo not given)
9,680,COC(=O)c1ccccc1NC(=O)N1CCN(c2nc3ccccc3n2C)CC1
10,888,CCn1c(=O)c(C)nc2cc(-c3noc(Cc4ccc(OC)c(OC)c4)n3)ccc21
11,856,CCCC(C)C(=O)NC1CCN(C2=NS(=O)(=O)C(c3ccc(F)cc3)=C2C)CC1 (stereo not given)
12,703,CC1CCN(Cc2nc(Cn3ccn4nc(-c5ccc(F)cc5)cc4c3=O)no2)CC1
13,607,O=C(c1cnccn1)N1CCC(N2C(=O)C(OCC3CC3)C23CCOCC3)CC1 (stereo not given)
14,620,CCCNC(=O)C1CCN(c2cncnc2N2CCCCC2)CC1
15,875,CCC(=O)N1CCc2nc(N3CCN(C(=O)CCOC)CC3)sc2C1
16,1150,COc1ccc(OC)c(NC(=O)C2=Cc3cc(Br)ccc3OC2)c1
17,730,COCCN1CCn2cc(S(=O)(=O)Nc3ccc(C)cc3C)cc2C1=O
18,755,CCCc1noc(-c2ccc3nnc(CC(=O)N4CCSCC4)n3c2)n1
19,697,O=C(O)c1cccc(Nc2c(-c3ccccc3)nc3cnccn23)c1
20,991,Fc1ccc(-c2noc(Cc3nnc(-c4ccc(F)cc4)o3)n2)cc1
21,774,Cc1nc(-c2cc(S(=O)(=O)NCC(=O)NC3CCCC3)c(C)s2)no1
22,729,COc1ccc(CCC(=O)N2CCC3(C2)C(=O)Nc2ccccc23)cc1 (stereo not given)

row,RP-LC retention time [s],SMILES
1,1140,Cc1ccc(S(=O)(=O)N2CC(C(=O)NC3CCCC3)Oc3ccc(C)cc32)cc1 (stereo not given)
2,590,O=C(Nc1ccc2c(c1)OCCO2)N1CCCn2nc(-c3ccncc3)cc2C1
3,1010,COc1ccc(-c2noc(C3CCCN3C(=O)Nc3ccccc3C(F)(F)F)n2)cc1 (stereo not given)
4,646,CN1C(=O)c2cccn2CC1CNC(=O)NCc1ccccc1 (stereo not given)
5,1300,Cc1ccc(C)c(-c2csc(Cc3nc(-c4ccc(F)cc4)no3)n2)c1
6,1050,COc1ccc(OC)c(NC(=O)C2CCCN(S(=O)(=O)Cc3ccc(Cl)cc3)C2)c1 (stereo not given)
7,1240,Cc1cccc(NS(=O)(=O)c2cc(-c3cc(C(F)(F)F)on3)sc2C)c1C
8,1020,COc1ccccc1-n1ccn(Cc2nc(-c3ccc(C(C)(C)C)cc3)no2)c(=O)c1=O
9,674,COC(=O)Cn1c(C2CC(=O)N(c3ccccc3OC)C2)nc2ccccc21 (stereo not given)
10,722,CC1CN(C2CCCCC2)c2nc3c(c(=O)n(CCN4CCCCC4)c(=O)n3C)n2C1 (stereo not given)
11,1050,O=C(CSc1nnc(NC(=O)C2(c3cccs3)CCCC2)s1)c1ccccc1
12,765,CCOC(=O)C1CCN(C(=O)c2ccc3c(c2)CCCN3S(C)(=O)=O)CC1
13,1020,COc1ccccc1-c1nc(Cc2noc(-c3ccccc3F)n2)c(C)o1
14,715,COc1cc(NC(=O)Cn2nc3c4ccc(F)cc4ncn3c2=O)cc(OC)c1
15,618,Cc1nc([C@@H]2CN(C(=O)c3cc(C)n(Cc4ccco4)c3C)C[C@H]2C(N)=O)n[nH]1
16,750,COc1ccccc1CNC1=NCCNC12CCN(S(=O)(=O)c1ccc(Cl)cc1)CC2
17,572,CCn1cnc2cc(CNC(=O)c3ccsc3)ccc21
18,683,O=C(Cn1ccn2nc(-c3ccc(F)cc3)c(CO)c2c1=O)N1CCCC1
19,613,COC(=O)CSCC(=O)Nc1cc(C(F)(F)F)ccc1Cl
20,966,O=C(CCC1CCCN(S(=O)(=O)c2ccccc2F)C1)NCc1cc(F)ccc1F (stereo not given)
21,1080,CCN1C(=O)C2(CCN(S(=O)(=O)c3ccc(OC)c(Cl)c3)CC2)c2ccccc21
22,596,CCc1ccc(NC(=O)Cn2c(N)nc(CC)cc2=O)cc1

row,RP-LC retention time [s],SMILES
1,853,O=C(NCC(O)(c1ccccc1)C(F)(F)F)c1ccc2nsnc2c1 (stereo not given)
2,1040,COc1ccc(C)cc1NC(=O)Cn1nc(N2CCSCC2)c2ccccc2c1=O
3,781,Cc1cc(C)c(-c2noc(C)n2)c(NC(=O)c2ccc(C)c(F)c2)n1
4,925,CCOC(=O)C1CCCN(C(=O)c2ccc(-c3csc(CC)n3)cc2)C1 (stereo not given)
5,1270,O=C(C1CCCN(c2ncnc3c2nc2n3CCCCC2)C1)N1CCOCC1 (stereo not given)
6,887,Cc1cc(-c2nn3c(-c4cccc(F)c4)nnc3s2)c2ccccc2n1
7,570,CN(C)CCNCc1ccc(-c2cccc(Cl)c2)o1
8,657,CCC(=O)Nc1cccn2nc(CC)nc12
9,868,COc1ccc(NC(=O)c2ccccc2NC(=O)C2CCN(C(=O)C(C)(C)C)CC2)cc1
10,618,Cc1cnc(C)n1CC1CCN(S(=O)(=O)Cc2ccccc2)C1 (stereo not given)
11,644,Cn1nc(C(=O)N2CCCC(C(=O)NC3CC3)C2)c2c1CCN(C(=O)COc1ccccc1)C2 (stereo not given)
12,1050,CCOc1cccc(C2c3[nH]c4ccccc4c3CCN2C(=O)c2ccnn2C)c1 (stereo not given)
13,628,Cc1ccccc1N1CC(C(=O)N(C)C)CC1=O (stereo not given)
14,604,CCCC(=O)Nc1ccc2c(c1)N(C(=O)c1ccco1)CCC2
15,1140,CCN(CC)S(=O)(=O)c1cc(-c2nnc(-c3ccc(OC)cc3)o2)ccc1Cl
16,761,CS(=O)(=O)N1CCCN(C(=O)C2(c3ccccc3)CC2)c2ccccc21
17,1270,COc1ccc(C)cc1NC(=O)c1cc(C(C)C)n2nccc2n1
18,600,Cc1c(NC(=O)c2cccs2)c(=O)n(-c2ccccc2)n1C
19,677,O=C(O)CCC1CCN(C(=O)c2ccccc2Cl)CC1
20,965,O=C(CSc1cc(-n2cccn2)ncn1)Nc1cccc(Cl)c1F
21,900,COc1ccc(-c2noc(C3CCCN3C(=O)c3cc(F)ccc3F)n2)cc1OC (stereo not given)
22,606,CC(C)(C)c1ccc(NC(=O)NCCN2CCN(S(C)(=O)=O)CC2)cc1

row,SMILES,RP-LC retention time [s]
1,CO[C@@H]1[C@H](OC(=O)NC(=O)CCl)CC[C@]2(CO2)[C@H]1[C@@]1(C)O[C@@H]1CC=C(C)C,692
2,COc1ccc2c(c1)C1(CCN(C(=O)c3ccc(Cl)cc3)C1)C(=O)N2 (stereo not given),767
